We go through 22 compounds from US7615643B2 (SmithKline Beecham Corporation, priority 2006, dated 2009).

T1 sequence (P53350 21-346): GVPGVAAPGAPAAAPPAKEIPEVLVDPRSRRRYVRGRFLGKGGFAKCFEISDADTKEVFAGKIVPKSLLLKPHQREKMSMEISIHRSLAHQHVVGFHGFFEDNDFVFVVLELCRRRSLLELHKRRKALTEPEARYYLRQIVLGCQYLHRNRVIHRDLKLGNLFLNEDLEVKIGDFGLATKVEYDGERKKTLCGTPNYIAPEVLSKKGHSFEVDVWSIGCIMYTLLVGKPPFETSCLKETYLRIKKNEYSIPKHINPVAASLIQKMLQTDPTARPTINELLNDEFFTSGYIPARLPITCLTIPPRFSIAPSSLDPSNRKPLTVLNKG

The assay has as its target T1, PLK1 (Homo sapiens, UniProt P53350).
T1 construct: PLK kinase domain (amino acids 21-346 preceded by MKKGHHHHHHD); made in house; host or cells: baculovirus infected T. ni cells
Nature of the assay: Assay for inhibition of PLK1 (SPA kinase assay). Conditions: 1 μM ATP, 2 nM PLK1 kinase domain, read-out: PLK1 pIC50 (converted). In kind it is biochemical. How it is done:
I. Assay for Inhibition of PLK1
A. Preparation of 6× N-terminal His-tagged PLK Kinase Domain
6× N-terminal His-tagged PLK kinase domain (amino acids 21-346 preceded by MKKGHHHHHHD) SEQ ID: No. 1. was prepared from baculovirus infected T. ni cells under polyhedrin promoter control. All procedures were performed at 4° C. Cells were lysed In 50 mM HEPES, 200 mM NaCl, 50 mM imidazole, 5% glycerol; pH 7.5. The homogenate was centrifuged at 14K rpm in a SLA-1500 rotor for 1 hr and the supernatant filtered through a 1.2 micron filter. The supernatant was loaded onto a Nickel chelating Sepharose (Amersham Pharmacia) column and washed with lysis buffer. Protein was eluted using 20%, 30% and 100% buffer B steps where buffer B was 50 mM HEPES, 200 mM NaCl, 300 mM imidazole, 5% glycerol; pH 7.5. Fractions containing PLK were determined by SDS-PAGE. Fractions containing PLK were diluted five-fold with 50 mM HEPES, 1 mM DTT, 5% glycerol; pH 7.5, then loaded on an SP Sepharose (Amersham Pharmacia) column. After washing the column with 50 mM HEPES, 1 mM DTT, 5% glycerol; pH 7.5, PLK was step eluted with 50 mM HEPES, 1 mM DTT, 500 mM NaCl; 5% glycerol; pH 7.5. PLK was concentrated using a 10 kDa molecular weight cutoff membrane and then loaded onto a Superdex 200 gel filtration (Amersham Pharmacia) column equilibrated in 25 mM HEPES, 1 mM DTT, 500 mM NaCl, 5% glycerol; pH 7.5. Fractions containing PLK were determined by SDS-PAGE. PLK was pooled, aliquoted and stored at −80° C. Samples were quality controlled using mass spectrometry, N-terminal sequencing and amino acid analysis.
B. Enzyme Activity +/− Inhibitors was Determined as Follows:
All measurements were obtained under conditions where signal production increased linearly with time and enzyme. Test compounds were added to white 384-well assay plates (0.1 μL for 10 μL and some 20 μL assays, 1 μL for some 20 μL assays) at variable known concentrations in 100% DMSO. DMSO (1-5% final, as appropriate) and EDTA (65 mM in reaction) were used as controls. Reaction Mix was prepared as follows at 22° C.: • 25 mM HEPES, pH 7.2 • 15 mM MgCl2 • 1 μM ATP • 0.05 μCi/well ^33P-γ ATP (10 Ci/mMol) • 1 μM substrate peptide (Biotin-Ahx-SFNDTLDFD) SEQ ID:No. 2. • 0.15 mg/mL BSA • 1 mM DTT • 2 nM PLK1 kinase domain (added last)
Reaction Mix (10 or 20 μL) was quickly added to each well immediately following addition of enzyme via automated liquid handlers and incubated 1-1.5 h at 22° C. The 20 μL enzymatic reactions were stopped with 50 μL of stop mix (50 mM EDTA, 4.0 mg/mL Streptavidin SPA beads in Standard Dulbecco's PBS (without Mg^2+ and Ca^2+), 50 μM ATP) per well. The 10 μL reactions were stopped with 10 μL of stop mix (50 mM EDTA, 3.0 mg/mL Streptavidin-coupled SPA imaging Beads (“LeadSeeker”) in Standard Dulbecco's PBS (without Mg^2+ and Ca^2+), 50 μM ATP) per well. Plates were sealed with clear plastic seals, spun at 500×g for 1 min or settled overnight, and counted in Packard TopCount for 30 seconds/well (regular SPA) or imaged using a Viewlux imager (LeadSeeker SPA). Signal above background (EDTA controls) was converted to percent Inhibition relative to that obtained in control (DMSO-only) wells.
Take `CC(Oc1cc(-n2cnc3cc(-c4cnn(C)c4)ccc32)sc1C(N)=O)c1cccc(OC2CCNCC2)c1` (racemic) [Example 73, (+/−)-5-[5-(1-Methyl-1H-pyrazol-4-yl)-1H-benzimidazol-1-yl]-3-({1-[3-(4-piperidinyloxy)phenyl]ethyl}oxy)-2-thiophenecarboxamide]: the IC50 was less than 100 nM.
Next, `CC(Oc1cc(-n2cnc3cc(-c4cnn(C)c4)ccc32)sc1C(N)=O)c1cccc(OC2CCN(C)CC2)c1` (racemic) [Example 74, (+/−)-3-[(1-{3-[(1-methyl-4-piperidinyl)oxy]phenyl}ethyl)oxy]-5-[5-(1-methyl-1H-pyrazol-4-yl)-1H -benzimidazol-1-yl]-2-thiophenecarboxamide]: less than 100 nM; `CC(Oc1cc(-n2cnc3cc(-c4cnn(C)c4)ccc32)sc1C(N)=O)c1cccc(OC2CCNCC2)c1F` (racemic) [Example 75, (+/−)-3-({1-[2-Fluoro-3-(4-piperidinyloxy)phenyl]ethyl}oxy)-5-[5-(1-methyl-1H-pyrazol-4-yl)-1H-benzimidazol-1-yl]-2-thiophenecarboxamide]: less than 100 nM; `CC(Oc1cc(-n2cnc3cc(-c4cnn(C)c4)ccc32)sc1C(N)=O)c1cccc(OC2CCN(C)CC2)c1F` (racemic) [Example 76, (+/−)-3-[(1-{2-Fluoro-3-[(1-methyl-4-piperidinyl)oxy]phenyl}ethyl)oxy]-5-[5-(1-methyl-1H-pyrazol-4-yl)-1H-benzimidazol-1-yl]-2-thiophenecarboxamide]: less than 100 nM.
For the compound `CC(Oc1cc(-n2cnc3cc(-c4cnn(C)c4)ccc32)sc1C(N)=O)c1ccnc(OC2CCNCC2)n1` (racemic) [Example 77, (+/−)-5-[5-(1-Methyl-1H -pyrazol-4-yl)-1H-benzimidazol-1-yl]-3-({1-[2-(4-piperidinyloxy)-4-pyrimidinyl]ethyl}oxy)-2-thiophenecarboxamide], the IC50 was 100 to 1000 nM.
`CC(Oc1cc(-n2cnc3cc(-c4cnn(C)c4)ccc32)sc1C(N)=O)c1ccnc(OC2CCN(C)CC2)n1` (racemic) [Example 78, (+/−)-3-[(1-{2-[(1-methyl-4-piperidinyl)oxy]-4-pyrimidinyl}ethyl)oxy]-5-[5-(1-methyl-1H-pyrazol-4-yl)-1H-benzimidazol-1-yl]-2-thiophenecarboxamide]: the IC50 is 100 to 1000 nM.
With `CC(Oc1cc(-n2cnc3cc(-c4cnn(C)c4)ccc32)sc1C(N)=O)c1ccnc(OC2CCNCC2)c1` (racemic) [Example 79, (+/−)-5-[5-(1-Methyl-1H-pyrazol-4-yl)-1H-benzimidazol-1-yl]-3-({1-[2-(4-piperidinyloxy)-4-pyridinyl]ethyl}oxy)-2-thiophenecarboxamide], the IC50 was less than 100 nM.
With `CC(Oc1cc(-n2cnc3cc(-c4cnn(C)c4)ccc32)sc1C(N)=O)c1cccc(OC2CCNCC2)n1` (racemic) [Example 81, (+/−)-5-[5-(1-Methyl-1H-pyrazol-4-yl)-1H-benzimidazol-1-yl]-3-({1-[6-(4-piperidinyloxy)-2-pyridinyl]ethyl}oxy)-2-thiophenecarboxamide], the IC50 is less than 100 nM.
Take `CC(Oc1cc(-n2cnc3cc(-c4cnn(C)c4)ccc32)sc1C(N)=O)c1cccc(OC2CCN(C)CC2)n1` (racemic) [Example 82, (+/−)-3-[(1-{6-[(1-Methyl-4-piperidinyl)oxy]-2-pyridinyl}ethyl)oxy]-5-[5-(1-methyl-1H-pyrazol-4-yl)-1H-benzimidazol-1-yl]-2-thiophenecarboxamide]: the IC50 was less than 100 nM.
For `COc1cc2ncn(-c3cc(O[C@H](C)c4cccc(NCC5CCNCC5)c4Cl)c(C(N)=O)s3)c2cc1OC` [Example 1, 5-[5,6-Bis(methyloxy)-1H-benzimidazol-1-yl]-3-[((1R)-1-{2-chloro-3-[(4-piperidinylmethyl)amino]phenyl}ethyl)oxy]-2-thiophenecarboxamide] the value was less than 100 nM.
Consider `COc1cc2ncn(-c3cc(O[C@H](C)c4cccc(NCC5CCN(C)CC5)c4Cl)c(C(N)=O)s3)c2cc1OC` [Example 2], for which the IC50 was less than 100 nM.
For `C[C@@H](Oc1cc(-n2cnc3cc(Cl)ccc32)sc1C(N)=O)c1cccc(OC2CCN(C)CC2)c1Cl` [Example 3] the value was less than 100 nM.
Regarding `C[C@@H](Oc1cc(-n2cnc3ccc(C#N)cc32)sc1C(N)=O)c1cccc(OC2CCN(C)CC2)c1Cl` [Example 4, 3-((1R)-1-{2-chloro-3-[(1-methylpiperidin-4-yl)oxy]phenyl}-ethoxy)-5-(6-cyano-1H-benzimidazol-1-yl)thiophene-2-carboxamide], the IC50 was less than 100 nM.
For `C[C@@H](Oc1cc(-n2cnc3ccc(C#N)cc32)sc1C(N)=O)c1cccc(OC2CCNCC2)c1Cl` [Example 5, 3-{(1R)-1-[2-chloro-3(piperidin-4-yloxy)phenyl]ethoxy}-5-(6-cyano-1H-benzimidazol-1-yl)thiophene-2-carboxamide] the value was less than 100 nM; for `C[C@@H](Oc1cc(-n2cnc3ccc(Br)cc32)sc1C(N)=O)c1cccc(OC2CCN(C)CC2)c1Cl` [Example 6, 5-(6-Bromo-1H-benzimidazol-1-yl)-3-[((1R)-1-{2-chloro-3-[(1-methyl-4-piperidinyl)oxy]phenyl}ethyl)oxy]-2-thiophenecarboxamide], less than 100 nM.
For `C[C@@H](Oc1cc(-n2cnc3ccc(Br)cc32)sc1C(N)=O)c1cccc(OC2CCNCC2)c1Cl` [Example 7, 5-(6-Bromo-1H-benzimidazol-1-yl)-3-({(1R)-1-[2-chloro-3-(4-piperidinyloxy)phenyl]ethyl}oxy)-2-thiophenecarboxamide] the value was less than 100 nM; for `C[C@@H](Oc1cc(-n2cnc3cc(Cl)ccc32)sc1C(N)=O)c1cccc(OC2CCNCC2)c1Cl` [Example 8, 5-(5-Chloro-1H-benzimidazol-1-yl)-3-({(1R)-1-[2-chloro-3-(4-piperidinyloxy)phenyl]ethyl}oxy)-2-thiophenecarboxamide], less than 100 nM; for `Cc1ccc(-c2ccc3c(c2)ncn3-c2cc(O[C@H](C)c3cccc(OC4CCNCC4)c3Cl)c(C(N)=O)s2)cn1` [Example 9, 3-({(1R)-1-[2-chloro-3-(4-piperidinyloxy)phenyl]ethyl}oxy)-5-[5-(6-methyl-3-pyridinyl)-1H-benzimidazol-1-yl]-2-thiophenecarboxamide], less than 100 nM.
For `Cc1ccc(-c2ccc3c(c2)ncn3-c2cc(O[C@H](C)c3cccc(OC4CCN(C)CC4)c3Cl)c(C(N)=O)s2)cn1` [Example 10, 3-[((1R)-1-{2-chloro-3-[(1-methyl-4-piperidinyl)oxy]phenyl}ethyl)oxy]-5-[5-(6-methyl-3-pyridinyl)-1H-benzimidazol-1-yl]-2-thiophenecarboxamide] the value was less than 100 nM; for `C[C@@H](Oc1cc(-n2cnc3cc(-c4cccnc4)ccc32)sc1C(N)=O)c1cccc(OC2CCN(C)CC2)c1Cl` [Example 11, 3-[((1R)-1-{2-chloro-3-[(1-methyl-4-piperidinyl)oxy]pheny}ethyl)oxy]-5-[5-(3-pyridinyl)-1H-benzimidazol-1-yl]-2-thiopnenecarboxamide], less than 100 nM; for `C[C@@H](Oc1cc(-n2cnc3cc(-c4cccnc4)ccc32)sc1C(N)=O)c1cccc(OC2CCNCC2)c1Cl` [Example 12, 3-({(1R)-1-[2-chloro-3-(4-piperidinyloxy)phenyl]ethyl}oxy)-5-[5-(pyridinyl)-1H-benzimidazol-1-yl]-2-thiophenecarboxamide], less than 100 nM.
For the compound `C[C@@H](Oc1cc(-n2cnc3ccccc32)sc1C(N)=O)c1cccc(OC2CCN(C)CC2)c1Cl` [Example 13, 5-(1H-benzimidazol-1-yl)-3-[((1R)-1-{2-chloro-3-[(1-methyl-4-piperidinyl)gxy]phenyl}ethyl)oxy]-2-thiophenecarboxamide], the IC50 is less than 100 nM.
